Results published in paper PMC12005767 (Advanced Science, 2025).

Tests used:
[1] = biological target: T1, HDAC1 (Homo sapiens, UniProt Q13547); experiment: In vitro HDACs inhibition fluorescence assay, HDAC1; format: biochemical; conditions: mean ± SEM
T1 construct: purchased BPS Bioscience
Method: (§1) In Vitro HDACs Inhibition Fluorescence Assay: For the inhibitory activity against HDAC1‐10, enzymes were also procured from BPS Bioscience. The in vitro […] inhibition assays were conducted following the established method described previously.^[ [45] ^] The working concentrations of HDAC1‐10 were 4 × 10^−9 M. The fluorogenic substrate of HDAC1, 2, 3, and 6 was Boc‐Lys (acetyl)‐AMC, and the substrate of HDAC4, 5, 7, 8, 9, and 10 was Boc‐Lys (trifluoroacetyl) AMC. The developer solution consists of 30 mg mL^−1 trypsin and 5 × 10^−6 M TSA. A standing period of 30 min was sufficient before assessing the fluorescence intensity.

[2] = biological target: T2, HDAC2 (Homo sapiens, UniProt Q92769); experiment: In vitro HDACs inhibition fluorescence assay, HDAC2; format: biochemical; conditions: mean ± SEM
T2 construct: purchased BPS Bioscience
Method: as §1

[3] = biological target: T3, HDAC3 (Homo sapiens, UniProt O15379); experiment: In vitro HDACs inhibition fluorescence assay, HDAC3; format: biochemical; conditions: mean ± SEM
T3 construct: purchased BPS Bioscience
Method: as §1

[4] = biological target: T4, HDAC4 (Homo sapiens, UniProt P56524); experiment: In vitro HDACs inhibition fluorescence assay, HDAC4; format: biochemical; conditions: mean ± SEM
T4 construct: purchased BPS Bioscience
Method: as §1

[5] = biological target: T5, HDAC5 (Homo sapiens, UniProt Q9UQL6); experiment: In vitro HDACs inhibition fluorescence assay, HDAC5; format: biochemical; conditions: mean ± SEM
T5 construct: purchased BPS Bioscience
Method: as §1

[6] = biological target: T6, HDAC9 (Homo sapiens, UniProt Q9UKV0); experiment: In vitro HDACs inhibition fluorescence assay, HDAC9; format: biochemical; conditions: mean ± SEM
T6 construct: purchased BPS Bioscience
Method: as §1

[7] = biological target: T7, HDAC10 (Homo sapiens, UniProt Q969S8); experiment: In vitro HDACs inhibition fluorescence assay, HDAC10; format: biochemical; conditions: mean ± SEM
T7 construct: purchased BPS Bioscience
Method: as §1

[8] = biological target: SIRT2 (Homo sapiens, UniProt Q8IXJ6); experiment: SIRT2 inhibition fluorescence assay (AcIQF substrate); format: biochemical
Method: For the inhibitory activity against SIRT2, substrate is the AcIQF.^[ [46] ^] Dilution series compound was incubated with the SIRT2 enzyme ([…]) for 30 min at 25 °C. Then AcIQF (5 × 10^−3 M) and NAD^+ ([…]) were added to start the reaction at 25 °C. 2 h later, […] stop solution (containing ≈2 U mL^−1 trypsin and 4 × 10^−3 M nicotinamide) was added to stop the reactions. Then the mixture was incubated for 30 min, and the fluorescence intensity was assessed.

[9] = test system: myristoylation of SHMT2; experiment: Click chemistry assay of SHMT2 myristoylation in HEK293T cells; format: cell-based; conditions: HEK293T cells, 0.25, 0.5 and 1 × 10^−6 M, 24 h
Method: For click chemistry experiment, HEK293T cells were first incubated with B6 for 24 h, followed by treatment with Alk14 for 4 h prior to harvest.
After the treatment mentioned in Section 4.2, HepG2 cells were lysed in 1% SDS lysis buffer (50 × 10^−3 M Tris‐HCl pH 8.0, 1% (w/v) SDS) with protease‐phosphatase inhibitor cocktail (ThermoFisher).^[ [47] ^] Click chemistry reactions were performed using commercially available reagents as per manufacturer instructions. 100 µg labeled protein was incubated with 50 µL of streptavidin magnetic beads overnight at 4 °C with end‐over‐end rotation. Following incubation, the beads were collected and rinsed three times with washing buffer. After the final wash, the supernatant was discarded, sample buffer was added to the beads and boiled at 95 °C for 5 min. The samples were further analyzed via western blotting using antibody specific for detection of endogenous SHMT2.

[10] = test system: acetylation of histone H3, histone H4, and α-tubulin; experiment: Acetylation of histone H3, histone H4 and α-tubulin in HEK293T cells (immunoblot); format: cell-based; conditions: HEK293T cells, 0.25, 0.5 and 1 × 10^−6 M, 24 h
Method: (§2) Western blot was carried out as described.^[ [49] ^] In brief, samples were lysed with a lysis buffer. The same quantity of total proteins (40–60 µg) from each sample was separated on SDS‐PAGE followed by transfer onto a nitrocellulose filter membrane and incubation with the indicated antibodies. After incubation with secondary antibodies, the protein bands were visualized using a chemiluminescence imaging system. All samples in the same group were processed simultaneously.

[11] = test system: HepG2 cells; experiment: FFA-induced lipid accumulation in HepG2 cells (Oil Red O); format: cell-based, human; conditions: 24 h
Method: For the lipid accumulation experiment, HepG2 cells were incubated for 24 h in DMEM containing 0.5 × 10^−3 M of a mixture of free fatty acids (FFA; oleic acid: palmitic acid = 2:1) and 1% FFA‐free bovine serum albumin to induce intracellular lipid accumulation, together with B6 treatment.
Cells were fixed with 4% paraformaldehyde, followed by sequential staining with Oil Red O and hematoxylin.

[12] = test system: SREBP1c, FASN, SCD1, CPT1A, PGC1α, PPARα expression in AML12 cells; experiment: Protein and mRNA expression of DNL and fatty acid oxidation genes in FFA-treated AML12 cells; format: cell-based
Method: as §2
Cells and liver tissues were extracted for total RNA. A reverse transcription kit was used to synthesize cDNA. qRT‐PCR was performed with the primers listed in Table S1 (Supporting Information) using the SYBR green PCR master mix. The coding sequence of the target gene was found in NCBI, and Primer3 (v.0.4.0) was used to design amplification primers. The results were normalized by β‐actin in the corresponding sample.

[13] = test system: ICR mice; experiment: Subacute toxicity study in ICR mice; format: in vivo
Method: For evaluation of subacute toxicity, ICR mice were divided into two groups (n = 8 per group (4M, 4F)). The B6 was prepared in vehicle (10% DMSO and 90% 0.5% HPMC aqueous solution) to administer once daily, by oral gavage for 30 d in the treatment groups. To the control groups, vehicle was administered orally. The animals were monitored for clinical and behavioral symptoms such as body weight, diarrhea, immobility, and mortality during the first day and thereafter for 30 d.

[14] = 50 mg kg^−1 p.o. daily for 30 d, vs control group

SIRT2, sequence (Q8IXJ6 whole entry, species assumed): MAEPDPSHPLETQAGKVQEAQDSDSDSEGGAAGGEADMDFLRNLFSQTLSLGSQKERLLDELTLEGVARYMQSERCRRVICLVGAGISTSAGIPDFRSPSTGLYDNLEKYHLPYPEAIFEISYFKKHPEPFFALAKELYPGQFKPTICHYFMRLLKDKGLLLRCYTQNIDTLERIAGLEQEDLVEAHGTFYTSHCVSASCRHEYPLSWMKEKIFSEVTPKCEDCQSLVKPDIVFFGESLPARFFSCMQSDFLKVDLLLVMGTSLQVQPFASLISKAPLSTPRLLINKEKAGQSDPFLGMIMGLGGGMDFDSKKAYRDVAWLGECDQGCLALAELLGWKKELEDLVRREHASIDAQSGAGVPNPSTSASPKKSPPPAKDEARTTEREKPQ
T4 sequence (P56524 whole entry): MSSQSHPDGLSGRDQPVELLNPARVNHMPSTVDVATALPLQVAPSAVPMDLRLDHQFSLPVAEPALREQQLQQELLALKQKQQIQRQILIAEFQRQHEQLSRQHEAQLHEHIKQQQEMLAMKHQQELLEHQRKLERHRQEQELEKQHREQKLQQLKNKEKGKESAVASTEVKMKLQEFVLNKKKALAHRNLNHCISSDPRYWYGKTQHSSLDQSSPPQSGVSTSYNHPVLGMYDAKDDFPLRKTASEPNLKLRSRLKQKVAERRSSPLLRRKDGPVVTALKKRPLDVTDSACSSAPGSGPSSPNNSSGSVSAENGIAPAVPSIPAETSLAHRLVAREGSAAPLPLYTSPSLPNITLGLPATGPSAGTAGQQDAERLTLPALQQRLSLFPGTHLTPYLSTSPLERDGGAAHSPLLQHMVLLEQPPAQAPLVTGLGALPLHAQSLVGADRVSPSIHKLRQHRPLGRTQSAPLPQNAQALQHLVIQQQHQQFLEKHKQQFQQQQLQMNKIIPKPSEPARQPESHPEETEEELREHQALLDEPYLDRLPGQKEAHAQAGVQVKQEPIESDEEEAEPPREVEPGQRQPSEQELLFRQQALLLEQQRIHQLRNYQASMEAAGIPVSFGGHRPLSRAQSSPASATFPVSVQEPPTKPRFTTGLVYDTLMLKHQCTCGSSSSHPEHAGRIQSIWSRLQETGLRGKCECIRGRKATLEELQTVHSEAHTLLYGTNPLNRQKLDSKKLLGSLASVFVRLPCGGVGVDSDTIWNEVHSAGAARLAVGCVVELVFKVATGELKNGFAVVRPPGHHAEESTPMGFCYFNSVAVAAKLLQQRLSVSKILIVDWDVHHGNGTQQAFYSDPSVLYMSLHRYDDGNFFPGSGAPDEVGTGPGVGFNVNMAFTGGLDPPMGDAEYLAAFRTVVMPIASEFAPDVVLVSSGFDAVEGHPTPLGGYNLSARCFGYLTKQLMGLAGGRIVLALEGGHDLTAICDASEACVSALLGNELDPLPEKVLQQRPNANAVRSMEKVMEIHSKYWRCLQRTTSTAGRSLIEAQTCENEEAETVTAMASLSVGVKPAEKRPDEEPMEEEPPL
T7 sequence (Q969S8 whole entry): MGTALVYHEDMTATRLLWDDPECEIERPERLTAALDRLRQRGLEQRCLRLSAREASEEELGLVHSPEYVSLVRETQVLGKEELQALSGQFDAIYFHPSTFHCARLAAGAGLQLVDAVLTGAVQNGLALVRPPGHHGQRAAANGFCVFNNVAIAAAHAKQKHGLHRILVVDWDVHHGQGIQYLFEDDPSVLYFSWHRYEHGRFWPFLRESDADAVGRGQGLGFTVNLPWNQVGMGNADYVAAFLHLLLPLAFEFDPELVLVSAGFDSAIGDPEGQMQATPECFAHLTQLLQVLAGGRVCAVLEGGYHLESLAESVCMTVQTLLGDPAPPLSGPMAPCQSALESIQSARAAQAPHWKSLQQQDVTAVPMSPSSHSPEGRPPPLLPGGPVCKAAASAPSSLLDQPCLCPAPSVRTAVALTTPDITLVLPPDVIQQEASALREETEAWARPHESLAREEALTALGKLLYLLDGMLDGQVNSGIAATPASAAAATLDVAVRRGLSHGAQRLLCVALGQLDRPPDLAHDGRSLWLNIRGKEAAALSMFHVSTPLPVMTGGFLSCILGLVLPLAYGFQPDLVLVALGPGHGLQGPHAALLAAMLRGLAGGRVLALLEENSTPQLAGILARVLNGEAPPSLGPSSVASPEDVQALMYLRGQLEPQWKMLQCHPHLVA
T5 sequence (Q9UQL6 whole entry): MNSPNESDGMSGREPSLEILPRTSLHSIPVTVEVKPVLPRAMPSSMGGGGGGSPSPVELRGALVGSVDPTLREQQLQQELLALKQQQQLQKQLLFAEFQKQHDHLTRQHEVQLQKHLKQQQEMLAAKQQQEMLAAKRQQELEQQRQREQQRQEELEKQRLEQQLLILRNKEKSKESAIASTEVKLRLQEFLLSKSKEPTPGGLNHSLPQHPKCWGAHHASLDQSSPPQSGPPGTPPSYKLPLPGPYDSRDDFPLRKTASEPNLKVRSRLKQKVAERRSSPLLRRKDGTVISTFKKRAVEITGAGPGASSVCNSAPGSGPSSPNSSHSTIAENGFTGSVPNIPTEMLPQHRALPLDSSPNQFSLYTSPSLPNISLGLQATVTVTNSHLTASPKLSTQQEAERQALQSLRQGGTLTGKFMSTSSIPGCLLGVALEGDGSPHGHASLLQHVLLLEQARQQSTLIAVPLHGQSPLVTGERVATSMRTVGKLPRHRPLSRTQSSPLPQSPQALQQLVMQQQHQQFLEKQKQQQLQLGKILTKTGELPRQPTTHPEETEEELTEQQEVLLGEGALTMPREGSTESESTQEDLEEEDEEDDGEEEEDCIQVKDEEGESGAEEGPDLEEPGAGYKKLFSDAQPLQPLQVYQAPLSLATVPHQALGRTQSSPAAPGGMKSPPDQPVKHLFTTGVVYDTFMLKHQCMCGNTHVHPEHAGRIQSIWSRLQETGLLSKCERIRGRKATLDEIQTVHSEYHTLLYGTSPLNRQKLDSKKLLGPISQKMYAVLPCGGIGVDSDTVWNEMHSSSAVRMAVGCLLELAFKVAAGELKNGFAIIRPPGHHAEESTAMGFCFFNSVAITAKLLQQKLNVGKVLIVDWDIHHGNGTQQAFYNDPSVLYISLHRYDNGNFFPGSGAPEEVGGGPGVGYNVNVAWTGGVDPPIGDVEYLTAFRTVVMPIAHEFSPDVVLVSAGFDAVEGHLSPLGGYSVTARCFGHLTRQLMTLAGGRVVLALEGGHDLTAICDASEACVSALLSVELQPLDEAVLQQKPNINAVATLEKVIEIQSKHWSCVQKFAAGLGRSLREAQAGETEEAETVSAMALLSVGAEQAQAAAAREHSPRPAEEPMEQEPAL
T2 sequence (Q92769 whole entry): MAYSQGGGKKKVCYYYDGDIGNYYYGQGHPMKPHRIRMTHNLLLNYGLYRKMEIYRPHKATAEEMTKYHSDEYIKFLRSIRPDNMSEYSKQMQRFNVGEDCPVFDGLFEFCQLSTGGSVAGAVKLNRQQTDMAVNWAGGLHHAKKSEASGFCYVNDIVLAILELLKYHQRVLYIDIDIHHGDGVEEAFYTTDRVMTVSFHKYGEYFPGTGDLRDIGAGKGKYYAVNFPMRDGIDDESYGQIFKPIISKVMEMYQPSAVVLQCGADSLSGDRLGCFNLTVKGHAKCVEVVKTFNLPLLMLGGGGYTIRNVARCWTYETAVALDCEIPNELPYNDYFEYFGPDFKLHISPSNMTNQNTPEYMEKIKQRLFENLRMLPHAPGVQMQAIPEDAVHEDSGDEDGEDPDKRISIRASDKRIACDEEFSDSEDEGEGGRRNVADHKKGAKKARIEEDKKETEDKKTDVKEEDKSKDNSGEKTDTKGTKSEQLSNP
T3 sequence (O15379 whole entry): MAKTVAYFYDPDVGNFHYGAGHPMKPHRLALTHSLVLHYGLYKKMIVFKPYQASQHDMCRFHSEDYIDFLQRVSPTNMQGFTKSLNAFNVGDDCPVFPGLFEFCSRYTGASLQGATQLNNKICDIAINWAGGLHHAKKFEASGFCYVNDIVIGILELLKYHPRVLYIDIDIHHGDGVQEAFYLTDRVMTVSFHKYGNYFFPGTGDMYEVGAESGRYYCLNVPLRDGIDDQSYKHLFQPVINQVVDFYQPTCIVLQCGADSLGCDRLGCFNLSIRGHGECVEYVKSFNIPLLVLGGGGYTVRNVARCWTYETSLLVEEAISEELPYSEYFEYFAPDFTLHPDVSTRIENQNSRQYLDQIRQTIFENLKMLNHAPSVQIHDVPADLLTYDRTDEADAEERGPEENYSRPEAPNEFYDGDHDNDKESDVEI
T3 sequence (Q9Y618 395-489 partner limits assumed): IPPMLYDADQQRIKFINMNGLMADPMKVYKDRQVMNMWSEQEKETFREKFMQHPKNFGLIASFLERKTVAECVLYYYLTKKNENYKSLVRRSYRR
T1 sequence (Q13547 whole entry): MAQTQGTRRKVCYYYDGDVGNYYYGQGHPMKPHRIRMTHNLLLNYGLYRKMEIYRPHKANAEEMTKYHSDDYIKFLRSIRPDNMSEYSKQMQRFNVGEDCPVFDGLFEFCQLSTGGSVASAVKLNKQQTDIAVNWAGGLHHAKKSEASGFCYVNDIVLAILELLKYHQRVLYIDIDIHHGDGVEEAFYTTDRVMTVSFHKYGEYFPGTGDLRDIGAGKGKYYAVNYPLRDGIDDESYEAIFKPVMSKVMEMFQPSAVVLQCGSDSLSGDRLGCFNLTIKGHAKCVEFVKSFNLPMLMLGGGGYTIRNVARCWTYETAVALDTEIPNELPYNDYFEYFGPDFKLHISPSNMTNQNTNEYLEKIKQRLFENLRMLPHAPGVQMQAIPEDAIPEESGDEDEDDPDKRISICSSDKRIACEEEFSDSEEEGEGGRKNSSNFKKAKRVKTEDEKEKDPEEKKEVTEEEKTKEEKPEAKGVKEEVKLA

Structure (SMILES): CCCCCOCCCCCNNC(=O)c1ccc(CNC(=O)c2ccccc2)cc1 [B6]
- IC50 [1]: > 10 µM
- IC50 [2]: > 10 µM
- IC50 [3]: > 10 µM
- IC50 [4]: > 10 µM
- IC50 [5]: > 10 µM
- IC50 [6]: > 10 µM
- IC50 [7]: > 10 µM
- inhibitory activity against other HDAC subtypes, including SIRT2 ([8]; at a concentration of 10 × 10^−6 M): no significant inhibitory activity
- IC50 ([8]; mean ± SEM): > 10 µM
- myristoylation of SHMT2 [9]: markedly increase
- acetylation levels of histones H3 and H4 or tubulin [10]: no effect
- FFA-induced lipid accumulation [11]: Comparable reduction in lipid accumulation
- FFA-suppressed protein and mRNA expression of CPT1A, PGC1α and PPARα [12]: partially restored
- FFA-upregulated protein and mRNA expression of SREBP1c, FASN and SCD1 ([12]; 0.5 × 10^−6 M, 24 h): reversed
- overall health and behavior ([13]; 50 mg kg^−1 p.o. daily for 30 d, ICR mice): no signs of toxicity
- body weight of male and female mice [13, 14]: did not induce any significant abnormal changes
- histopathological evaluations of liver, kidneys, heart, spleen and lungs [13, 14]: no significant differences
- therapeutic window ([13]; 50 mg kg^−1 vs effective dose 5 mg kg^−1): at least tenfold
